# Assay results: patent US20130309380A1, “METHODS FOR PRESERVING FRESH PRODUCE” (NatureSeal, Inc., priority 2003, published 2013)
# Key:
# Bramley apples [1] = test: Evaluation of sliced Bramley apples: appearance by visual inspection, firmness by bending
# Protocol: (§1) The firmness of the produce in Example 11a were evaluated by bending produce samples. Appearance was evaluated by visual inspection. The moisture was evaluated by measuring the amount of water the produce released.
# (§2) Whole Bramley apples free from blemishes or bruises, were rinsed with water, sanitized with a sodium hypochlorite solution having 100 parts per million available chlorine, for two minutes, then peeled, cored, and sliced. The sliced apples were dipped into a fresh produce preservative solution that contained 5.12% strontium ascorbate; the fresh produce preservative solution contained 4.12% ascorbic acid and 1.79% […], for about 30 to 60 seconds. The apples were then drained in a colander for one minute. The apple slices and the colander were placed in 500 micron plastic bags from SunSet Packaging, stored at 4° C. and evaluated several times over a 15 day period. Water which collected in the plastic bag was removed and weighed.
# (§3) For comparison, similarly prepared apple slices were placed in one of several solutions that contained either: 4.3% ascorbic acid and 1.13% hydrated MgCO3, specifically 4MgCO3.Mg(OH)25H2O or a 5.0% w/w aqueous solution of calcium ascorbate dihydrate, having a pH of 7.2; or a 5.3% w/w solution, of 4.12% ascorbic acid and 1.17% calcium carbonate,; or 6% ascorbic acid having a pH of 2.3; or 48 g ascorbic acid, 48 g citric acid, 16 g CaCl2 and 48 g NaCl in 800 g water, with a pH of 1.2; or 6% w/w citric acid and 6% w/w ascorbic acid; or 4.64% sodium ascorbate having 4.13% ascorbic acid and 1.18% NaCo3.
# Bramley apples were preserved with the fresh produce preservative as in Example 11a except that the preservative solution contained lithium ascorbate. The lithium ascorbate solution was prepared by adding 7.35 grams of lithium carbonate and 35 grams ascorbic acid to 800 grams water.
# For comparison, apple slices were placed in one of several comparative solutions: a 5.0% w/w aqueous solution of calcium ascorbate dihydrate containing 42.5 grams of calcium ascorbate dihydrate and 800 grams water with a pH of 7; a 5.3% w/w solution of calcium ascorbate containing 44.94 grams of mixture of 9.95 grams calcium carbonate and 35 grams ascorbic acid in 800 grams water with a pH of 5.5; a comparative solution, containing 48 g ascorbic acid, 48 g citric acid, 16 g CaCl2, 48 g NaCl and 800 g water with a pH of 1.2; a comparative solution of sodium ascorbate containing 28.45 grams of sodium carbonate 35 grams ascorbic acid, 800 grams water having a pH of 6.8; a comparative solution of calcium ascorbate containing 8.75 grams of calcium carbonate, 35 grams ascorbic acid, and to 800 grams water; a comparative solution of calcium ascorbate containing 9.95 grams of calcium carbonate, 35 grams ascorbic acid, and 765 grams water; a comparative solution of magnesium ascorbate containing 9.66 grams of hydrated magnesium carbonate 4MgCO3.Mg(OH)25H2O, 35 grams ascorbic acid, 765 grams water, having a pH of 6.4; and a comparative solution of zinc ascorbate containing 35 grams ascorbic acid, 12.74 grams zinc carbonate and 765 grams water, with a pH of 5.5. The apple slices were evaluated on day five.
# Bramley apples [2] = test: Water released by sliced Bramley apples
# Protocol: as §1, §2
# as §3, with “NaCo3. […]” for “NaCo3.”
Molecule,Texture (Bramley apples [1]; 28 hr at 4° C.),Texture (Bramley apples [1]; 52 hr at 4° C.),Texture (Bramley apples [1]; 94 hr at 4° C.),Texture (Bramley apples [1]; 191 hr at 4° C.),Appearance (visual inspection) (Bramley apples [1]; 335 hr at 4° C.),Texture (Bramley apples [1]; 335 hr at 4° C.),Color (Bramley apples [1]; Day 5),Texture (Bramley apples [1]; Day 5),Water Released (Bramley apples [2]; 4 hr at 4° C.),Water Released (Bramley apples [2]; 28 hr at 4° C.),Water Released (Bramley apples [2]; 52 hr at 4° C.),Water Released (Bramley apples [2]; 94 hr at 4° C.),Water Released (Bramley apples [2]; 191 hr at 4° C.),Water Released (Bramley apples [2]; 335 hr at 4° C.),Texture (Bramley apples [1]; 4 hr at 4° C.)
calcium ascorbate dihydrate,Firm,Firm,Firm,Firm,Good condition,Firm,White,Very Firm,6.84 g,5.88 g,5.56 g,4.00 g,2.67 g,1.33 g,–
magnesium ascorbate,Firm,Firm,Firm,Firm,Good color,Firm and crisp,White,Very Firm,6.54 g,7.07 g,6.43 g,4.75 g,3.73 g,2.17 g,–
"O=C1O[C@H]([C@@H](O)CO)C([O-])=C1O.[Na+] [Sodium Ascorbate, sodium ascorbate]",Firm,Firm,Firm,Firm,Internal browning on some,–,White,Firm,6.58 g,6.74 g,6.67 g,4.87 g,4.08 g,3.77 g,Firm
zinc ascorbate,–,–,–,–,–,–,Brown,Very Soft,–,–,–,–,–,–,–
